Measurements taken from the Kinase Knowledgebase extract (Sharma et al. 2016).

Columns and labels:
MAPK14 (human) = MAPK14 (human) (UniProt Q16539); conditions: Monocyte
MAPK14 = MAPK14 (UniProt Q16539); test: P38-alpha Kinase Inhibition
MAPK14 (Balb/c mice) = test: TNF-alpha Inhibition (Balb/c Mice)

Sequence of MAPK14 (human) (Q16539 whole entry, looked up): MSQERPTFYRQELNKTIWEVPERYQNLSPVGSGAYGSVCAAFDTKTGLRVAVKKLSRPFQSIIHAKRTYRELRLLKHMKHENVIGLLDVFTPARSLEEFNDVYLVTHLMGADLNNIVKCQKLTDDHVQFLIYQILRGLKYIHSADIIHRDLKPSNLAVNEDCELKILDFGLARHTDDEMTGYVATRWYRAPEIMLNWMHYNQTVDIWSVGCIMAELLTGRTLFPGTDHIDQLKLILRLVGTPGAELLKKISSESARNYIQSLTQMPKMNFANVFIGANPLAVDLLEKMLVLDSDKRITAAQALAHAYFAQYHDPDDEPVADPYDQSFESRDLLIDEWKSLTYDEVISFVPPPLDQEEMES
Sequence of MAPK14 (Q16539 whole entry, looked up): as above

Row | SMILES | EC50 (MAPK14 (human)) [nM] | IC50 (MAPK14) [nM] | ED50 (MAPK14 (Balb/c mice)) [mg/kg]
1 | C[C@]1(N)CO[C@H](c2nc(-c3ccncc3)c(-c3ccc(F)cc3)[nH]2)OC1 | 180 | – | –
2 | CC(C)C1O[C@H](c2nc(-c3ccncc3)c(-c3ccc(F)cc3)[nH]2)OCC1(C)C (stereo partly specified) | 115 | – | –
3 | Fc1ccc(-c2[nH]c([C@H]3OC[C@H](Cc4ccccc4)CO3)nc2-c2ccncc2)cc1 | 191 | – | –
4 | C[C@]1(N)CO[C@@H](c2nc(-c3ccncc3)c(-c3ccc(F)cc3)[nH]2)OC1 | 55 | – | –
5 | C[C@]1(NC(=O)c2ccccc2)CO[C@H](c2nc(-c3ccncc3)c(-c3ccc(F)cc3)[nH]2)OC1 | 110 | 44 | 11
6 | C[C@]1(CN)CO[C@@H](c2nc(-c3ccncc3)c(-c3ccc(F)cc3)[nH]2)OC1 | 33 | – | –
7 | C[C@]1(C(=O)N2CCOCC2)CO[C@H](c2nc(-c3ccncc3)c(-c3ccc(F)cc3)[nH]2)OC1 | 110 | 50 | 6
8 | C[C@]1(CNC(=O)c2ccccc2)CO[C@H](c2nc(-c3ccncc3)c(-c3ccc(F)cc3)[nH]2)OC1 | 84 | – | –
9 | C[C@]1(CN)CO[C@H](c2nc(-c3ccncc3)c(-c3ccc(F)cc3)[nH]2)OC1 | 38 | – | –
10 | OC[C@H]1CO[C@@H](c2nc(-c3ccncc3)c(-c3ccc(F)cc3)[nH]2)OC1 | 200 | – | –
11 | Fc1ccc(-c2[nH]c([C@H]3OC[C@@H](Cc4ccccc4)CO3)nc2-c2ccncc2)cc1 | 145 | – | –
12 | C=C1COC(c2nc(-c3ccncc3)c(-c3ccc(F)cc3)[nH]2)OC1 | 117 | – | –
